Data as given in ChEMBL document CHEMBL4130577, “Platanic acid: A new scaffold for the synthesis of cytotoxic agents” (Eur J Med Chem, 2018).

Experiments:
NIH3T3 = test: Cytotoxicity against mouse NIH/3T3 cells after 96 hrs by SRB assay; assay type: cell-based; settings: NIH3T3, 96 h
HT-29 = test: cells; settings: Homo sapiens, HT-29, 96 h
Description: Cytotoxicity against human HT-29 cells after 96 hrs by SRB assay

A549 = test: Cytotoxicity against human A549 cells after 96 hrs by SRB assay; assay type: functional, cell-based; settings: A549, 96 h
A2780 = test: Cytotoxicity against human A2780 cells after 96 hrs by SRB assay; assay type: functional, cell-based; settings: A2780, 96 h
MCF7 = test: Cytotoxicity against human MCF7 cells after 96 hrs by SRB assay; assay type: functional, cell-based; settings: MCF7, 96 h
518A2 = test: Cytotoxicity against human 518A2 cells after 96 hrs by SRB assay; assay type: functional, cell-based; settings: 518A2, 96 h

SMILES	EC50 (HT-29)	EC50 (NIH3T3)	EC50 (A549)	EC50 (A2780)	EC50 (MCF7)	EC50 (518A2)
CC(=O)O[C@H]1CC[C@]2(C)[C@H]3CC[C@@H]4[C@H]5[C@H](C(C)=O)CC[C@]5(C(=O)OCc5ccccc5)CC[C@@]4(C)[C@]3(C)CC[C@H]2C1(C)C	> 30 µM	> 30 µM		> 30 µM	> 30 µM	
CC(=O)O[C@H]1CC[C@]2(C)[C@H]3CC[C@@H]4[C@H]5[C@H](C(C)=O)CC[C@]5(C(=O)O)CC[C@@]4(C)[C@]3(C)CC[C@H]2C1(C)C	> 30 µM	> 30 µM	> 30 µM	> 30 µM	> 30 µM	> 30 µM
CNC(=O)[C@@H]1CC[C@]2(C(=O)OC)CC[C@]3(C)[C@H](CC[C@@H]4[C@@]5(C)CC[C@H](OC(C)=O)C(C)(C)[C@@H]5CC[C@]43C)[C@@H]12	> 30 µM	> 30 µM	> 30 µM	11.2 µM	13.9 µM	
CC(=O)[C@@H]1CC[C@]2(C(=O)OCc3ccccc3)CC[C@]3(C)[C@H](CC[C@@H]4[C@@]5(C)CCC(=O)C(C)(C)[C@@H]5CC[C@]43C)[C@@H]12	> 30 µM	> 30 µM	> 30 µM	> 30 µM	> 30 µM	> 30 µM
CC(=O)[C@@H]1CC[C@]2(C(=O)O)CC[C@]3(C)[C@H](CC[C@@H]4[C@@]5(C)CC[C@H](O)C(C)(C)[C@@H]5CC[C@]43C)[C@@H]12 [PLATANIC ACID]	36.2 µM	35.4 µM	47.3 µM	37 µM	34.2 µM	44.8 µM
COC(=O)[C@]12CC[C@@H](C(C)=O)[C@@H]1[C@H]1CC[C@@H]3[C@@]4(C)CC[C@H](OC(C)=O)C(C)(C)[C@@H]4CC[C@@]3(C)[C@]1(C)CC2	> 30 µM	> 30 µM		> 30 µM	> 30 µM	
CC(=O)O[C@H]1CC[C@]2(C)[C@H]3CC[C@@H]4[C@H]5[C@H](C(C)=O)CC[C@]5(N=C=O)CC[C@@]4(C)[C@]3(C)CC[C@H]2C1(C)C	> 30 µM	> 30 µM		> 30 µM	> 30 µM	
CN[C@@H]1C[C@H]2O[C@@](C)([C@@H]1OC)n1c3ccccc3c3c4c(c5c6ccccc6n2c5c31)C(=O)NC4 [STAUROSPORINE]	0.15 µM	0.008 µM	0.04 µM	0.12 µM		
COC(=O)[C@]12CC[C@@H](NC(C)=O)[C@@H]1[C@H]1CC[C@@H]3[C@@]4(C)CC[C@H](O)C(C)(C)[C@@H]4CC[C@@]3(C)[C@]1(C)CC2	> 30 µM	> 30 µM	> 30 µM	> 30 µM	> 30 µM	
COC(=O)[C@]12CC[C@@H](C(C)=O)[C@@H]1[C@H]1CC[C@@H]3[C@@]4(C)CC[C@H](O)C(C)(C)[C@@H]4CC[C@@]3(C)[C@]1(C)CC2	> 30 µM	> 30 µM	> 30 µM	> 30 µM	> 30 µM	
COC(=O)[C@]12CC[C@@H](NC(C)=O)[C@@H]1[C@H]1CC[C@@H]3[C@@]4(C)CC[C@H](OC(C)=O)C(C)(C)[C@@H]4CC[C@@]3(C)[C@]1(C)CC2	> 30 µM	24.1 µM	27.7 µM	22.1 µM	10 µM	
CCC(=O)O/N=C(\C)[C@@H]1CC[C@]2(C(=O)OC)CC[C@]3(C)[C@H](CC[C@@H]4[C@@]5(C)CC[C@H](OC(C)=O)C(C)(C)[C@@H]5CC[C@]43C)[C@@H]12	28.7 µM	15.3 µM	13.2 µM		13.4 µM	17.9 µM
CNC(=O)[C@@H]1CC[C@]2(C(=O)OC)CC[C@]3(C)[C@H](CC[C@@H]4[C@@]5(C)CC[C@H](O)C(C)(C)[C@@H]5CC[C@]43C)[C@@H]12	> 30 µM	> 30 µM	> 30 µM	> 30 µM	> 30 µM	

Now from value to compound, other results behind:

EC50 (HT-29)	SMILES	EC50 (NIH3T3)	EC50 (A549)	EC50 (A2780)	EC50 (MCF7)	EC50 (518A2)
3.9 µM	CC(=O)[C@@H]1CC[C@]2(C(=O)NCCN(C)C)CC[C@]3(C)[C@H](CC[C@@H]4[C@@]5(C)CC[C@H](O)C(C)(C)[C@@H]5CC[C@]43C)[C@@H]12	3.5 µM	5.1 µM	4 µM	3.2 µM	3.6 µM
18.7 µM	CC(=O)[C@@H]1CC[C@]2(N)CC[C@]3(C)[C@H](CC[C@@H]4[C@@]5(C)CC[C@H](O)C(C)(C)[C@@H]5CC[C@]43C)[C@@H]12	27.5 µM	> 30 µM	> 30 µM	> 30 µM	> 30 µM
2 µM	COC(=O)[C@]12CC[C@@H]([C@H](C)N)[C@@H]1[C@H]1CC[C@@H]3[C@@]4(C)CC[C@H](OC(C)=O)C(C)(C)[C@@H]4CC[C@@]3(C)[C@]1(C)CC2	4.4 µM	6.6 µM	6 µM	4.6 µM	6.3 µM
2.3 µM	CC(=O)[C@@H]1CC[C@]2(C(=O)NCCN)CC[C@]3(C)[C@H](CC[C@@H]4[C@@]5(C)CC[C@H](O)C(C)(C)[C@@H]5CC[C@]43C)[C@@H]12	2.5 µM	2.6 µM	2.5 µM	2.4 µM	2.5 µM
20.1 µM	CC(=O)O[C@H]1CC[C@]2(C)[C@H]3CC[C@@H]4[C@H]5[C@H](/C(C)=N\O)CC[C@]5(C(=O)OCc5ccccc5)CC[C@@]4(C)[C@]3(C)CC[C@H]2C1(C)C	14 µM	11.2 µM	9.9 µM	7.3 µM	16.5 µM
13 µM	COC(=O)[C@]12CC[C@@H](/C(C)=N\O)[C@@H]1[C@H]1CC[C@@H]3[C@@]4(C)CC[C@H](OC(C)=O)C(C)(C)[C@@H]4CC[C@@]3(C)[C@]1(C)CC2	12.3 µM	8.8 µM	12.9 µM	12.1 µM	9.7 µM
23.8 µM	COC(=O)[C@]12CC[C@@H](/C(C)=N/OC(C)=O)[C@@H]1[C@H]1CC[C@@H]3[C@@]4(C)CC[C@H](OC(C)=O)C(C)(C)[C@@H]4CC[C@@]3(C)[C@]1(C)CC2	15 µM	13.5 µM		13.1 µM	16.5 µM
14.4 µM	COC(=O)[C@]12CC[C@@H](/C(C)=N/O)[C@@H]1[C@H]1CC[C@@H]3[C@@]4(C)CC[C@H](OC(C)=O)C(C)(C)[C@@H]4CC[C@@]3(C)[C@]1(C)CC2	14 µM	8.2 µM	12.2 µM	12.4 µM	7.8 µM
20.3 µM	C[C@@H](N)[C@@H]1CC[C@]2(CO)CC[C@]3(C)[C@H](CC[C@@H]4[C@@]5(C)CC[C@H](O)C(C)(C)[C@@H]5CC[C@]43C)[C@@H]12	16 µM	> 30 µM	> 30 µM	> 30 µM	23.7 µM
20.7 µM	CC(=O)O[C@H]1CC[C@]2(C)[C@H]3CC[C@@H]4[C@H]5[C@H]([C@@H](C)N)CC[C@]5(C(=O)O)CC[C@@]4(C)[C@]3(C)CC[C@H]2C1(C)C	27.2 µM	> 30 µM	> 30 µM	> 30 µM	23.2 µM
3.3 µM	CC(=O)O[C@H]1CC[C@]2(C)[C@H]3CC[C@@H]4[C@H]5[C@H](C(C)=O)CC[C@]5(C(=O)NCCN)CC[C@@]4(C)[C@]3(C)CC[C@H]2C1(C)C	2.1 µM	3.2 µM	3.2 µM	3.1 µM	3.2 µM
1.3 µM	CC(=O)O[C@H]1CC[C@]2(C)[C@H]3CC[C@@H]4[C@H]5[C@H]([C@H](C)N)CC[C@]5(C(=O)OCc5ccccc5)CC[C@@]4(C)[C@]3(C)CC[C@H]2C1(C)C	2 µM	3.3 µM	2.3 µM	1.3 µM	2.5 µM
24.7 µM	COC(=O)[C@]12CC[C@@H]([C@H](C)NC(C)=O)[C@@H]1[C@H]1CC[C@@H]3[C@@]4(C)CC[C@H](OC(C)=O)C(C)(C)[C@@H]4CC[C@@]3(C)[C@]1(C)CC2	19.4 µM	25.5 µM	25.3 µM	17.9 µM	30.1 µM
2.3 µM	CC(=O)O[C@H]1CC[C@]2(C)[C@H]3CC[C@@H]4[C@H]5[C@H]([C@@H](C)N)CC[C@]5(C(=O)OCc5ccccc5)CC[C@@]4(C)[C@]3(C)CC[C@H]2C1(C)C	4.1 µM	3.1 µM	4 µM	3 µM	2.2 µM
4.5 µM	CC(=O)O[C@H]1CC[C@]2(C)[C@H]3CC[C@@H]4[C@H]5[C@H](C(C)=O)CC[C@]5(C(=O)NCCN(C)C)CC[C@@]4(C)[C@]3(C)CC[C@H]2C1(C)C	1.4 µM	2.9 µM	3.8 µM	2.5 µM	3.7 µM
2.2 µM	CC(=O)O[C@H]1CC[C@]2(C)[C@H]3CC[C@@H]4[C@H]5[C@H](C(C)=O)CC[C@]5(C(=O)NCCN5CCCC5)CC[C@@]4(C)[C@]3(C)CC[C@H]2C1(C)C	0.6 µM	2.9 µM	4.3 µM	2 µM	3.3 µM
10.1 µM	CC(=O)[C@@H]1CC[C@]2(C(=O)OCc3ccccc3)CC[C@]3(C)[C@H](CC[C@@H]4[C@@]5(C)CC[C@H](O)C(C)(C)[C@@H]5CC[C@]43C)[C@@H]12	18.1 µM	15.9 µM	15.8 µM	9 µM	
